ChEMBL document CHEMBL1201862, “PubChem BioAssay data set” (2004)
One block for each compound: values may come before it. Active and inactive are the calls of the source.

Key:
Paired box protein Pax-8 = Paired box protein Pax-8 (Homo sapiens, UniProt Q06710); test: PAX8 transcriptional activity inhibition in RMG-I – RMG-I cells, luciferase, cherry-pick, dose response (AID 687027); format: functional, cell-based;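 note: luciferase reporter driven by Pax8 target thyroperoxidase promoter measured by SteadyGlo luminescence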
[1] = OVCAR-3 cell viability loss – plate reader, dry powder samples, PAX8 inhibitor project, dose response (AID 743044); format: functional, cell-based
[2] = A2780 cell killing – plate reader, dry powder samples, cytotoxicity control, dose response (AID 743046); format: functional, cell-based
[3] = OVCAR8 cell viability loss – plate reader, dry powder samples, PAX8 project, dose response (AID 743197); format: functional, cell-based; settings: OVCAR-8
[4] = viability loss in A549 lung cells – cell-based, 24 h, CellTiter-Glo luminescence, cherry-picks, cytotoxicity control, dose response (AID 1053115); format: functional; settings: A549, 24 h
[5] = molecular target: C-X-C chemokine receptor type 4 (Homo sapiens, UniProt P61073); test: SAR analysis of small molecule antagonists of the CXCR6 receptor using a CXCR4 receptor luminescent beta-arrestin counterscreen.; format: functional
[6] = molecular target: C-C chemokine receptor type 6 (Homo sapiens, UniProt P51684); test: SAR analysis of small molecule antagonists of the CXCR6 receptor using a CCR6 receptor luminescent beta-arrestin counterscreen.; format: functional
[7] = YAP1 overexpression rescue of CTGF inhibition – DLD1 cells, RT-qPCR, cherry-pick, mechanism study for YAP1 pathway inhibitor project, dose response (AID 1053127); format: functional, cell-based; settings: DLD-1
[8] = cytotoxicity in MITF-independent A375 cells – cell-based, CellTiter-Glo luminescence, dry powder, set 4, counter-screen for MITF inhibitor project, dose response (AID 624364); format: functional; settings: A-375;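 note: A375 melanoma cells are MITF independent so this is a counter screen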
[9] = viability loss in MITF-independent A375 cells – cell-based, CellTiter-Glo luminescence, dry powder, set 2, counter-screen for MITF inhibitor project, dose response (AID 624489); format: functional; settings: A-375;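 note: actives are compounds lowering A375 viability meaning general cytotoxicity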
Kallikrein-7 = Kallikrein-7 (Homo sapiens, UniProt P49862); test: Fluorescence Intensity-based biochemical primary high throughput dose response assay to identify activators of kallikrein-7 (K7) zymogen.
[10] = growth inhibition of yeast DHODH-expressing 3D7 parasites – SYBR Green, dry powder samples, dose response (AID 1159570); format: functional, cell-based;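 note: parasite growth measured after 72 hours of compound exposure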
[11] = growth inhibition of PfATP4-mutant resistant parasites – NITD609-resistant line, SYBR Green, dry powder, dose response (AID 1159571); format: functional, cell-based;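 note: parasites synchronized at ring stage by sorbitol before testing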
[12] = Dd2 malaria parasite growth inhibition potency – SYBR Green, dry powder samples, dose response (AID 1159566); format: functional, cell-based;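 note: potency for growth inhibition with lower SYBR green DNA signal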
[13] = toxicity to human HepG2 hepatoma cells – cell-based, plate reader, dry powder samples, cytotoxicity control, dose response (AID 1159569); format: functional;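 note: inhibitor potency with signal falling toward the positive control level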
[14] = P. falciparum Dd2 growth inhibitors, dose response, SYBR Green, cherry-picked samples (AID 1159567); format: functional, cell-based
[15] = BioA aminotransferase inhibition, coupled fluorescent readout – biochemical, coupled fluorescence displacement, 20-point, dry powder, dose response (AID 743357); format: functional
[16] = molecular target: 1-phosphatidylinositol 4,5-bisphosphate phosphodiesterase beta-3 (Homo sapiens, UniProt Q01970); test: Fluorescence-based biochemical high throughput dose response assay to identify inhibitors of phospholipase C isozymes (PLC-B3).
[17] = molecular target: 1-phosphatidylinositol 4,5-bisphosphate phosphodiesterase gamma-1 (Homo sapiens, UniProt P19174); test: Counterscreen for inhibitors of phospholipase C isozymes (PLC-B3): Fluorescence-based biochemical high throughput dose response assay to identify inhibitors of phospholipase C isozymes (PLC-gamma1).
[18] = rise of 2N DNA cells, HeLa – IC50, dose response (AID 1117349); format: functional, cell-based
[19] = cytotoxicity toward HCT116 cells – cell-based, CellTiter-Glo luminescence, IC50, dose response (AID 1117332); format: functional; settings: HCT-116
[20] = rise of 4N DNA cells, HeLa – IC50, dose response (AID 1117351); format: functional, cell-based
[21] = SNU-C1 cell viability reduction, dose response, CellTiter-Glo luminescence (AID 1117323); format: functional, cell-based
[22] = Potency on glucagon-like peptide 1 release, dose-response in NCI-H716 cell line, half maximal inhibitory concentration (AID 1117344); format: functional, cell-based
[23] = CellTiter-Glo luminescence survival assay, SW480 colon tumor line, concentration-response curve, half-maximal inhibitory concentration (AID 1117338); format: functional
[24] = HCT116 cell viability decrease, GSK3B pretreatment – CellTiter-Glo, IC50, dose response (AID 1117339); format: functional; settings: HCT-116
[25] = Reduced DLD-1 viability, concentration-response, CellTiter-Glo luminescence (AID 1117352); format: functional
[26] = RKO cell viability reduction, dose response, CellTiter-Glo luminescence (AID 1117322); format: functional
[27] = cytotoxicity toward Colo320 cells – cell-based, CellTiter-Glo luminescence, IC50, dose response (AID 1117334); format: functional; settings: COLO 320
[28] = glucagon-like peptide-1 release potency in STC-1, concentration-response, half-maximal inhibitory concentration in the STC-1 line (AID 1117345); format: functional, cell-based
[29] = cytotoxicity toward HT-29 cells – cell-based, CellTiter-Glo luminescence, IC50, dose response (AID 1117330); format: functional
[30] = HPDE-C7 pancreatic duct cell viability loss – fluorescence, HTS (AID 430); format: functional, cell-based; settings: Homo sapiens
[31] = viability loss of HPDE-C7K cells – cell-based, fluorescence, HTS, primary screen (AID 431); format: functional; settings: Homo sapiens
[32] = IC50 of insulin release inhibition, rat insulinoma INS-1E line, 5 mM glucose, cell-based (AID 1117331); format: functional

1-phosphatidylinositol 4,5-bisphosphate phosphodiesterase gamma-1, sequence (P19174 whole entry): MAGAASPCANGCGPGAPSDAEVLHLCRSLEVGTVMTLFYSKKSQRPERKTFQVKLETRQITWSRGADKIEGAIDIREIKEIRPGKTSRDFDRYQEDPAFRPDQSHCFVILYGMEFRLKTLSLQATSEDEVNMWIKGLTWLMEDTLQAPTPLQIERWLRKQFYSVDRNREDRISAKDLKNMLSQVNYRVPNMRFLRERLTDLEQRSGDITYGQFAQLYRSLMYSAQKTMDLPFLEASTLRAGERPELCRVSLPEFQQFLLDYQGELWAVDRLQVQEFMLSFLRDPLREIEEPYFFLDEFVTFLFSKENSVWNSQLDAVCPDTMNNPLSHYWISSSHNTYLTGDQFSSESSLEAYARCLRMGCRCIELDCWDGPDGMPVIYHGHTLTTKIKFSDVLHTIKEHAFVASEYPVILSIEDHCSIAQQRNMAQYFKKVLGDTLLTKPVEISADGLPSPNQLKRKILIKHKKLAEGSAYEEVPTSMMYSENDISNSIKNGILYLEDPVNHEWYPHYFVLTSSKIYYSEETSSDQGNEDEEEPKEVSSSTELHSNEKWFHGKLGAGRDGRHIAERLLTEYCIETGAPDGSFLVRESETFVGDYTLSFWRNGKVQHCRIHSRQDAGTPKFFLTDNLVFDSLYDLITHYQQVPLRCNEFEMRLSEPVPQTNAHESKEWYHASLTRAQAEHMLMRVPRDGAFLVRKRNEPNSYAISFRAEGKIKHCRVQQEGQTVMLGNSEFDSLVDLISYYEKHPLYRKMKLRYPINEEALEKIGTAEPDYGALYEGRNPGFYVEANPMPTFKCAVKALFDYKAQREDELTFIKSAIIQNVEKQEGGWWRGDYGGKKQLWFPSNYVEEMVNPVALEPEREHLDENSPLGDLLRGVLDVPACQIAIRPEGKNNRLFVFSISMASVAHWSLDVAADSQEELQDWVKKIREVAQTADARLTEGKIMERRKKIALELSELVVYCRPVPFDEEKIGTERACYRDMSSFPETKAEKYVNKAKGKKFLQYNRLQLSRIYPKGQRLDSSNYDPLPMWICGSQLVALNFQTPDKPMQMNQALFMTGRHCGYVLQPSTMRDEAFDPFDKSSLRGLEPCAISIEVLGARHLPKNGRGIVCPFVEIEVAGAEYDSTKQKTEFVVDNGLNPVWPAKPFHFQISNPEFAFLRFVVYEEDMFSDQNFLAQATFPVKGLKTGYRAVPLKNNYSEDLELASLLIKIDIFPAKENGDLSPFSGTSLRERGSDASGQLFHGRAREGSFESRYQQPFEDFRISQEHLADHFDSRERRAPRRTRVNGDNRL
Kallikrein-7, sequence (P49862 whole entry): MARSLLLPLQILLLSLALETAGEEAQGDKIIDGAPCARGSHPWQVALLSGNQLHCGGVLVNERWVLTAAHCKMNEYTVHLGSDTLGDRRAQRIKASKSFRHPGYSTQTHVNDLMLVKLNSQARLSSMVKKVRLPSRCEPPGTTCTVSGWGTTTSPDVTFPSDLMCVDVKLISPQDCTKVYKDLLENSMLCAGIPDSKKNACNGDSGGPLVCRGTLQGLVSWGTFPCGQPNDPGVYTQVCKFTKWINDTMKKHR
1-phosphatidylinositol 4,5-bisphosphate phosphodiesterase beta-3, sequence (Q01970 whole entry): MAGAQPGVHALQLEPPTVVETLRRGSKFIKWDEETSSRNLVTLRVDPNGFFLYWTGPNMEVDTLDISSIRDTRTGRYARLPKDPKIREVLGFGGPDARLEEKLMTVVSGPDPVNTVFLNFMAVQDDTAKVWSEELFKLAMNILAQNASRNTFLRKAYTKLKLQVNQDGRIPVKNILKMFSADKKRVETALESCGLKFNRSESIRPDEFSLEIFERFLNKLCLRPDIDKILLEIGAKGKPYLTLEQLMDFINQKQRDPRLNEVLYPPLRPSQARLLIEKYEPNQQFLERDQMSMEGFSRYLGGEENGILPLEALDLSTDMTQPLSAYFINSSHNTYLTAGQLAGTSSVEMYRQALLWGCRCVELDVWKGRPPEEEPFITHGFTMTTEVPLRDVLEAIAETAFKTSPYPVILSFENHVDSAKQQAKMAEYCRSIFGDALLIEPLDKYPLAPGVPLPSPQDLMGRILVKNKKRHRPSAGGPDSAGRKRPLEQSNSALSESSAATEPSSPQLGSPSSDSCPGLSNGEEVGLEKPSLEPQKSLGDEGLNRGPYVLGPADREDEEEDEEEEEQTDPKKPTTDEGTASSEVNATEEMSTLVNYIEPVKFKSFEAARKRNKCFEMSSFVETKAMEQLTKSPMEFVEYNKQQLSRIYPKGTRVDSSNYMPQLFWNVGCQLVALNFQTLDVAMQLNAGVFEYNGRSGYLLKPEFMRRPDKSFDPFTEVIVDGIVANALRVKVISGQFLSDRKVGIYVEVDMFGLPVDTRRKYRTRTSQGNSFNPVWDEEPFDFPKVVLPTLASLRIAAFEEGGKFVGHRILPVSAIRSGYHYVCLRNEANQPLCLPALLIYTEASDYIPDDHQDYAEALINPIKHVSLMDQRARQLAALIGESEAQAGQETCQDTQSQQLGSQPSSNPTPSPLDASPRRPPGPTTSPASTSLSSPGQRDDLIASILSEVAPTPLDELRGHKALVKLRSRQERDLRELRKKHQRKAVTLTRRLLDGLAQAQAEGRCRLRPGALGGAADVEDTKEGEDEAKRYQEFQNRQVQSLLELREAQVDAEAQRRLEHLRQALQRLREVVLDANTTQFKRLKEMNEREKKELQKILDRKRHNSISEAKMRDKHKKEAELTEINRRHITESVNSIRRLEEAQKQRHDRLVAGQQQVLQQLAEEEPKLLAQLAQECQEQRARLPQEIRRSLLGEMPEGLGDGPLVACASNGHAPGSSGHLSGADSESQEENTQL
C-X-C chemokine receptor type 4, sequence (P61073 whole entry): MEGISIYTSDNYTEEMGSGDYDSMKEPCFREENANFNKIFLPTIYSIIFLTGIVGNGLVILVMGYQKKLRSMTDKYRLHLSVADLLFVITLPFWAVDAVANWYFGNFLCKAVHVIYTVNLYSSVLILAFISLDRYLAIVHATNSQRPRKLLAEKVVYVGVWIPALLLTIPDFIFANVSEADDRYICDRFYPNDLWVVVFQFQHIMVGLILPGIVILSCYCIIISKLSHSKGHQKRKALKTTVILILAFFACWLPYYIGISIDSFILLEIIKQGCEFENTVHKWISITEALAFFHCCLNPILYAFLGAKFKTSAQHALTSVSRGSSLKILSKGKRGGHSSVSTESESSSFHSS
Paired box protein Pax-8, sequence (Q06710 whole entry): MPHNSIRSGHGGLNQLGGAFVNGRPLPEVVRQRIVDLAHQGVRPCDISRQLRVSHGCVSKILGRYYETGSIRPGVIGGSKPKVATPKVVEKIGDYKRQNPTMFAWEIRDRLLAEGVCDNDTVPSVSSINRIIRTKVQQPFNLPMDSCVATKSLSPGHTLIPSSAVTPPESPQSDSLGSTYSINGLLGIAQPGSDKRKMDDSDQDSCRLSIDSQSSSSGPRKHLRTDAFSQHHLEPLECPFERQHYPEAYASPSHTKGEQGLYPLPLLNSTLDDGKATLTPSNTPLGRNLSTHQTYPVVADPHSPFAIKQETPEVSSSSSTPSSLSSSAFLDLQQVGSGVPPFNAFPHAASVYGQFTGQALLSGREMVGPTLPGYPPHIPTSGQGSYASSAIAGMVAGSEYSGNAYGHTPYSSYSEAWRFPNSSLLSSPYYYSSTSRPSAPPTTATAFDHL
C-C chemokine receptor type 6, sequence (P51684 whole entry): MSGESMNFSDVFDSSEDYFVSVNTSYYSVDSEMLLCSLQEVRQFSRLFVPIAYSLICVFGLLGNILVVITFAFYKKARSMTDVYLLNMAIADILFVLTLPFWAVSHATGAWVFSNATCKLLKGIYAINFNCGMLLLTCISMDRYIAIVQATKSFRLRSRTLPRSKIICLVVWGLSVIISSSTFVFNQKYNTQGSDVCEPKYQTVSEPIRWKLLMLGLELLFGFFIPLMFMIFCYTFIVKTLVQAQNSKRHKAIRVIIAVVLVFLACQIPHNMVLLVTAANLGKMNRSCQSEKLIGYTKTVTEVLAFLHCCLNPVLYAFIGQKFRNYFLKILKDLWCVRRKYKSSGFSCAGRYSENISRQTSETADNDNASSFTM

Structure (SMILES): O=C(C1CCC1)N1CC(=O)N2[C@H](C1)[C@H](c1ccc(C#Cc3cccc(F)c3)cc1)[C@@H]2CO
AC50 (Paired box protein Pax-8): 10.6 µM (active) | AC50 [1]: 9.85 µM (active) | AC50 [2]: 18 µM (active) | AC50 [3]: > 70 µM (inactive)

Structure (SMILES): N#Cc1ccc(-c2ccc3c(c2)[C@@H]2[C@@H](CCN2C(=O)C2CCCCC2)[C@H](CO)N3)cc1
AC50 [4]: 46.8 µM (active)

Structure (SMILES): COc1ccc(NC(=O)CN2C3CCCC2CC(NC(=O)c2cc(OC)c(OC)c(OC)c2)C3)cc1 (centres undefined)
IC50 [5]: > 79 µM (inactive) | IC50 [6]: > 79 µM (inactive)

Structure (SMILES): Cc1ccccc1-c1ccc([C@H]2[C@@H](CO)N3CCCCN(S(=O)(=O)Cc4ccccc4)C[C@@H]23)cc1
AC50 [7]: > 26 µM (inactive)

Structure (SMILES): C=CCNC1=C(N2CCN(CC)CC2)C(=O)c2ccccc2C1=O
AC50 [8]: 29.3 µM (active) | AC50 [9]: 13.8 µM (active)

EC50 (Kallikrein-7): > 69.6 µM (inactive)
Structure (SMILES): COc1ccc(OC)c(/C=N\NC(=O)c2c(C)nc3cc(C)ccn23)c1

Structure (SMILES): COc1cccc(C#Cc2cnc3c(c2)C(=O)N([C@H](C)CO)C[C@H](C)[C@@H](CN(C)C(=O)C2CCCCC2)O3)c1
AC50 [10]: 1.58 µM (active) | AC50 [11]: 0.803 µM (active) | AC50 [12]: 0.643 µM (active) | AC50 [13]: 29.4 µM (active) | AC50 [14]: 0.722 µM (active)

Structure (SMILES): COc1ccc(C(=O)N2CCN(c3ccc(C(C)=O)cc3)CC2)cc1OC
AC50 [15]: 11.7 µM (active)

IC50 [16]: > 123 µM (inactive) | IC50 [17]: > 123 µM (inactive)
Structure (SMILES): O=C(O)CCCN1C(=O)/C(=C\c2ccco2)SC1=S

Structure (SMILES): COC(=O)Nc1nc2cc(Sc3ccccc3)ccc2[nH]1 [FENBENDAZOLE]
IC50 [18]: 0.204 µM (active) | IC50 [19]: 0.001 µM (active) | IC50 [20]: 0.195 µM (active) | IC50 [21]: > 20 µM (inactive) | IC50 [22]: > 40 µM (inactive) | IC50 [23]: > 20 µM (inactive) | IC50 [24]: 0.003 µM (active) | IC50 [25]: 0.0673 µM (active) | IC50 [26]: 0.001 µM (active) | IC50 [27]: > 20 µM (inactive) | IC50 [28]: > 20 µM (inactive) | IC50 [29]: > 20 µM (inactive)

Structure (SMILES): CN1C[C@H](CNC(=O)OCc2ccccc2)C[C@@H]2c3cccc4c3c(cn4C)C[C@H]21 [METERGOLINE]
EC50 [30]: > 20 µM (not active) | EC50 [31]: > 20 µM (not active) | IC50 [32]: > 33.3 µM (inactive)
